Counter-ions that a name gives are not always drawn. Like-named read-outs stand apart in the source and are kept apart here.
How the values were obtained:
[1] = molecular target: T1, MOR (Mus musculus, UniProt P42866); assay: Desensitization study: DAMGO-induced [35S]GTPγS binding after ligand pretreatment of mMOR-CHO cells; type: cell-based; set-up: expressed in transfected cells; host or cells: CHO
[2] = molecular target: T1, MOR; conditions: 24 h pretreatment (DAMGO, morphine 5 μM; nalbuphine, naltrexone 1 μM); previously published; cited from earlier work
[3] = molecular target: T2, DOR (Homo sapiens, UniProt P41143); assay: biochemical; type: binding; set-up: expressed in transfected cells; host or cells: CHO
T2 sequence (P41143 whole entry): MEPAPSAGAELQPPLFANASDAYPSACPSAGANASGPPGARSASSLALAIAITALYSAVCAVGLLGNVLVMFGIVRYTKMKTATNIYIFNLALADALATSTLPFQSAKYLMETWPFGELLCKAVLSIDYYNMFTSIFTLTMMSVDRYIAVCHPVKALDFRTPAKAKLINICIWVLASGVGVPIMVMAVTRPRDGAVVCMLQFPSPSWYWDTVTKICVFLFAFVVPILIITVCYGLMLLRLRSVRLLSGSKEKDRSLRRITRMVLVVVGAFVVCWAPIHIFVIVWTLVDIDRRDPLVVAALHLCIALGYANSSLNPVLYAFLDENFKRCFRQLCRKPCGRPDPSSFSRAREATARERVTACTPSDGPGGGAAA

[4] = molecular target: T3, KOR (Homo sapiens, UniProt P41145); assay: biochemical; type: binding
T3 construct: expressed in transfected cells; host or cells: CHO
T3 sequence (P41145 whole entry): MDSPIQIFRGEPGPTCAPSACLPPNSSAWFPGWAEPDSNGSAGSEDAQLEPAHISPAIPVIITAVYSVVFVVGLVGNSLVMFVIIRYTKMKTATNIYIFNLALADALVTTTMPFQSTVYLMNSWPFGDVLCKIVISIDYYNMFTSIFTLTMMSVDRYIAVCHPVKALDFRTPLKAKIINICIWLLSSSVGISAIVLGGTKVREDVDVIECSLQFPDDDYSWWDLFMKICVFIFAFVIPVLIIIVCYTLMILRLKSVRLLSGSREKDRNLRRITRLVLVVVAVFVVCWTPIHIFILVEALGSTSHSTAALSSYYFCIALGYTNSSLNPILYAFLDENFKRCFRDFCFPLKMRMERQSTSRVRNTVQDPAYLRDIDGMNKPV

[5] = molecular target: T1, MOR; assay: Competition radioligand binding, MOR ([3H]naloxone); set-up: expressed in transfected cells; host or cells: CHO; conditions: CHO cell membranes
[6] = molecular target: T1, MOR; assay: biochemical
[7] = molecular target: T1, MOR; conditions: for EC50: read-out: MOR 35S-GTP[γS] Binding EC50; for MOR 35S-GTP[γS] Binding % Emax of DAMGO: relative to 3 μM DAMGO
[8] = test system: Caco-2 monolayers; conditions: related study, cited from earlier work
[9] = test system: Swiss Webster mice; assay: Tail immersion assay (agonism, and antagonism of morphine); type: in vivo, mouse; conditions: for % MPE of morphine (10 mg/kg) in the presence of test compound (antagonism): test compound 10 mg/kg s.c., 5 min before morphine; for AD50 (antagonism of morphine antinociception): 95% confidence level in brackets
[10] = test system: morphine-pelleted mice; assay: Withdrawal study in morphine-pelleted mice
[11] = molecular target: T1, MOR; set-up: expressed in transfected cells; host or cells: CHO; conditions: read-out: Ki MOR; [3H]naloxone; values from reference 44a/57a; cited from earlier work
[12] = molecular target: T1, MOR; conditions: values from reference 44a/57a, cited from earlier work
[13] = molecular target: T3, KOR; conditions: values from reference 44a/57a; cited from earlier work
[14] = molecular target: T2, DOR; conditions: values from reference 44a/57a; cited from earlier work
[15] = molecular target: T4, rat MOR (Rattus norvegicus, UniProt P33535); type: cell-based
T4 construct: expressed in transfected cells; host or cells: Neuro2A murine neuroblastoma cells (clones H38 and H16)
T4 sequence (P33535 whole entry): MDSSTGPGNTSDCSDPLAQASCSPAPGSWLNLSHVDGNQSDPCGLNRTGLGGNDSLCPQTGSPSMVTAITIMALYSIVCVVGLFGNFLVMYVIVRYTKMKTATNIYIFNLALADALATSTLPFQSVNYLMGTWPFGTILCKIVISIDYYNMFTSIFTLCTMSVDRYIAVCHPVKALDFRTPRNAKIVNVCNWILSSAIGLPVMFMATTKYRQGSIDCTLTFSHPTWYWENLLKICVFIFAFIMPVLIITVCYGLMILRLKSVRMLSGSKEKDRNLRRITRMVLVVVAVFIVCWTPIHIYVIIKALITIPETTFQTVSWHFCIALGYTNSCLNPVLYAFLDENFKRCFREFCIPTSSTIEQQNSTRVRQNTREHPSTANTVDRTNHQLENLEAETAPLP

[16] = molecular target: mouse μ opioid receptor (Mus musculus, UniProt P42866); assay: Calcium mobilization assay in mMOR-CHO cells; type: cell-based
Chain of mouse μ opioid receptor (P42866 whole entry): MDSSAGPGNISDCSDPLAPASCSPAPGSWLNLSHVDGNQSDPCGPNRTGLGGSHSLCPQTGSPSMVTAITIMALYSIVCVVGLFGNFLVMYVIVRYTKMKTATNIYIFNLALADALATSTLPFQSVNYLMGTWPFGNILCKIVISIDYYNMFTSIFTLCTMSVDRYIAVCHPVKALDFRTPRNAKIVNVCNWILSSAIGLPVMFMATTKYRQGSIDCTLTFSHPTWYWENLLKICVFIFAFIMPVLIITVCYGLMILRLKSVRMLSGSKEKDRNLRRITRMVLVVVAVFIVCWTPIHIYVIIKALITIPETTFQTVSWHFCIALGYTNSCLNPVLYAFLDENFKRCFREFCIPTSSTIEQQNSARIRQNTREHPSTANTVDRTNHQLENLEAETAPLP

[17] = test system: C57BL/6J mice; assay: Warm-water tail-withdrawal test with cumulative morphine dosing; type: in vivo, mouse
[18] = test system: P-gp; assay: Caco-2 bidirectional transport assay; conditions: human
[19] = test system: Caco-2 monolayers; assay: Caco-2 bidirectional transport assay
[20] = read-out: MOR 35S-GTP[γS] Binding % Emax of DAMGO, relative to 3 μM DAMGO

T1 sequence (P42866 whole entry): as above

Compound: Cc1cc(C(=O)N[C@@H]2CCC3(O)C4Cc5ccc(O)c6c5[C@@]3(CCN4CC3CC3)[C@H]2O6)ccn1 (some centres unmarked) (as salt: hydrochloride)
- melting point: 248 °C (dec.)

Compound: C[C@@H](NC(=O)[C@@H](N)Cc1ccc(O)cc1)C(=O)NCC(=O)N(C)[C@@H](Cc1ccccc1)C(=O)NCCO [DAMGO, reference compound]
- Increase of DAMGO EC50 compared with vehicle treated group ([1]; pretreated mMOR-CHO cells): ~4 fold
- Emax of DAMGO-stimulated [35S]GTPγS binding after pretreatment (net) [2]: 121.62 ± 13.78 fmol/mg

Compound: O=C(N[C@@H]1CC[C@@]2(O)[C@H]3Cc4ccc(O)c5c4[C@@]2(CCN3CC2CC2)[C@H]1O5)c1ccncc1C1CCCCC1 [Compound 10]
- Ki [3]: 11.2 ± 1.91 nM
- Ki [4]: 3.32 ± 0.54 nM
- Ki [5]: 0.78 ± 0.09 nM
- Emax [6, 20]: 51.6 ± 3.73%
- EC50 ([7]; MOR-CHO membranes): 2.46 ± 0.3 nM

Compound: CC(C)Cc1cnccc1C(=O)N[C@@H]1CC[C@@]2(O)[C@H]3Cc4ccc(O)c5c4[C@@]2(CCN3CC2CC2)[C@H]1O5 [Compound 8]
- Ki [3]: 149 ± 16 nM
- Ki [4]: 75.6 ± 3.87 nM
- Ki [5]: 7.2 ± 0.81 nM
- Ki MOR [5]: nanomolar binding affinity
- Emax [6, 20]: 27.3 ± 0.25%
- MOR 35S-GTP[γS] Binding EC50 ([7]; MOR-CHO membranes): lowest potency
- EC50 ([7]; MOR-CHO membranes): 19.7 ± 2.37 nM

Compound: O=C(Cc1ccncc1C(F)(F)F)N[C@@H]1CC[C@@]2(O)[C@H]3Cc4ccc(O)c5c4[C@@]2(CCN3CC2CC2)[C@H]1O5 [Compound 4, 17-Cyclopropylmetyl-3,14β-dihydroxy-4,5α-epoxy-6β-[(3′-trifluromethyl-4′-pyridyl)acetamido]morphinan]
- Selectivity δ/μ [3]: 143.7
- Ki ([3]; read-out: Ki DOR): 61.8 ± 5 nM
- Selectivity κ/μ [4]: 29.1
- Ki ([4]; read-out: Ki KOR): 12.5 ± 0.89 nM
- Ki [5]: 0.43 ± 0.01 nM
- EC50 ([7]; MOR-CHO membranes): 1.38 ± 0.2 nM
- MOR 35S-GTP[γS] Binding % Emax of DAMGO [7]: 31.88 ± 3.39%

Compound: O=C(N[C@@H]1CC[C@@]2(O)[C@H]3Cc4ccc(O)c5c4[C@@]2(CCN3CC2CC2)[C@H]1O5)c1ccncc1-c1ccccc1 [Compound 12]
- Ki [3]: 44.8 ± 3.7 nM
- Ki [4]: 3.42 ± 0.38 nM
- Ki [5]: 0.63 ± 0.05 nM
- Emax [6, 20]: 44.4 ± 3.12%
- EC50 ([7]; MOR-CHO membranes): 1.46 ± 0.18 nM

Compound: O=C(N[C@@H]1CCC2(O)C3Cc4ccc(O)c5c4[C@@]2(CCN3CC2CC2)[C@H]1O5)c1ccnc(Cl)c1 (some centres unmarked) (as salt: hydrochloride)
- melting point: > 250 °C

Compound: C[C@H]1O[C@@H](O[C@H]2[C@@H](O)C[C@H](O[C@H]3[C@@H](O)C[C@H](O[C@H]4CC[C@@]5(C)[C@H](CC[C@@H]6[C@@H]5C[C@@H](O)[C@]5(C)[C@@H](C7=CC(=O)OC7)CC[C@]65O)C4)O[C@@H]3C)O[C@@H]2C)C[C@H](O)[C@@H]1O [digoxin]
- PDR ([8]; after elacridar was added): 1.2
- PDR ([8]; without elacridar): 5.1

Compound: N#Cc1cnccc1C(=O)N[C@@H]1CC[C@@]2(O)[C@H]3Cc4ccc(O)c5c4[C@@]2(CCN3CC2CC2)[C@H]1O5 [Compound 2]
- % MPE of morphine (10 mg/kg) in the presence of test compound (antagonism) ([9]; listed as 2 (NYP)): antagonized morphine's antinociception effect significantly
- % MPE of morphine (10 mg/kg) in the presence of test compound (antagonism) ([9]; listed as NYP): 7.8±5.4%
- Ki [3]: 46.3 ± 7.86 nM
- Ki [4]: 2.74 ± 0.47 nM
- Ki [5]: 0.87 ± 0.09 nM
- Wet dog shakes and jumps versus naloxone 1 mg/kg ([10]; 1 mg/kg s.c.): significantly fewer wet dog shakes and jumps
- Emax [6, 20]: 26.1 ± 0.74%
- EC50 ([7]; MOR-CHO membranes): 1.28 ± 0.2 nM

Compound: Cc1cnccc1C(=O)N[C@@H]1CC[C@@]2(O)[C@H]3Cc4ccc(O)c5c4[C@@]2(CCN3CC2CC2)[C@H]1O5 [NMP, N-((4R,4aS,7R,7aR,12bS)-3-(cyclopropylmethyl)-4a,9-dihydroxy-2,3,4,4a,5,6,7,7a-octahydro-1H-4,12-methanobenzofuro[3,2-e]isoquinolin-7-yl)-3-methylisonicotinamide]
- Ki [11]: 0.58 ± 0.25 nM
- EC50 ([12]; read-out: MOR 35S-GTP[γS] Binding EC50): 1.52 ± 0.26 nM
- MOR 35S-GTP[γS] Binding % Emax of DAMGO [12]: 30.63 ± 0.55%
- Selectivity κ/μ [13]: 166
- Selectivity δ/μ [14]: 470

Compound: C=CCN1CC[C@]23c4c5ccc(O)c4O[C@H]2C(=O)CC[C@@]3(O)[C@H]1C5 [naloxone, reference compound]
- AD50 (antagonism of morphine antinociception) [9]: 0.05 mg/kg

Compound: COc1cc(C(=O)N[C@@H]2CCC3(O)C4Cc5ccc(O)c6c5[C@@]3(CCN4CC3CC3)[C@H]2O6)ccn1 (some centres unmarked) (as salt: hydrochloride)
- melting point: 244 to 248 °C (dec.)

Compound: 17-Cyclopropylmetyl-3,14β-dihydroxy-4,5α-epoxy-6β-[(3′-carboxyl-4′-pyridyl) acetamido]morphinan [Compound 5]
- Selectivity δ/μ [3]: 73.2
- Ki ([3]; read-out: Ki DOR): 55.6 ± 6.02 nM
- Selectivity κ/μ [4]: 3.2
- Ki ([4]; read-out: Ki KOR): 2.43 ± 0.19 nM
- Ki [5]: 0.76 ± 0.08 nM
- EC50 ([7]; MOR-CHO membranes): 1.83 ± 0.18 nM
- MOR 35S-GTP[γS] Binding % Emax of DAMGO [7]: 29.27 ± 1.42%

Compound: O=C(N[C@@H]1CC[C@@]2(O)[C@H]3Cc4ccc(O)c5c4[C@@]2(CCN3CC2CC2)[C@H]1O5)c1ccncc1F [Compound 1]
- AD50 (antagonism of morphine antinociception) [9]: 2.82 (1.34-5.94) mg/kg
- % MPE of morphine (10 mg/kg) in the presence of test compound (antagonism) ([9]; listed as 1 (NFP)): antagonized morphine's antinociception effect significantly
- % MPE of morphine (10 mg/kg) in the presence of test compound (antagonism) ([9]; listed as NFP): 6.2±2.4%
- Ki [3]: 157 ± 7.81 nM
- Ki [4]: 4.8 ± 0.26 nM
- Internalization of the MOR [15]: did not
- IC50 [16]: 76.1 ± 2.5 nM
- EC50, Ca2+ signal (agonist mode) ([16]; mMOR-CHO cells transfected with Gαqi5, up to 3 μM): did not induce any apparent Ca^2+ signal
- Antinociception (% MPE) of morphine in NFP group relative to vehicle-treated group, Day 1 ([17]; NFP 0.3 mg/kg s.c. pretreatment, 10 mg/kg cumulative morphine, p=0.0013): significantly less antinociception
- Antinociception (% MPE) of morphine in NFP group relative to Vehicle Group, Day 7 ([17]; after five days of 10 mg/kg morphine + 0.3 mg/kg NFP, 32 mg/kg cumulative morphine, p=0.0138): significantly less antinociception
- efflux ratio at 2 h, 20 μM ([18]; Caco-2, pH 7.4): 7 ± 0.5
- efflux ratio at 2 h, 20 μM ([18]; Caco-2, pH 7.4, with elacridar 1 μM): 1.3 ± 0.3
- P-gp substrate ([19]; Caco-2, with or without elacridar): may be a P-gp substrate
- Papp, B-A (efflux) compared with Papp, A-B (absorption) ([19]; NFP 20 μM, 37° C., 2 h): much higher
- Ki [5]: 0.36 ± 0.02 nM
- Wet dog shakes, jumps and paw tremors versus naloxone 1 mg/kg ([10]; 10 mg/kg s.c., 20 min): significantly fewer wet dog shakes, jumps, and paw tremors
- Jumps versus naloxone 1 mg/kg ([10]; 50 mg/kg s.c.): significantly fewer jumps
- Wet dog shakes and paw tremors versus naloxone 1 mg/kg ([10]; 50 and 100 mg/kg s.c.): not significantly different from those of naloxone
- Emax ([6]; read-out: Emax, stimulation of [35S]GTPγS binding (normalized to DAMGO), mMOR-CHO membranes, ligand alone, concentration-effect curve): 34.9 ± 1.5%
- Emax [6, 20]: 35 ± 3.07%
- Emax ([6]; read-out: Maximal inhibition (minimum) as % of maximal stimulation produced by DAMGO, in the presence of 0.3 μM DAMGO, mMOR-CHO membranes): 37.7 ± 1.5%
- Emax of DAMGO-stimulated [35S]GTPγS binding after pretreatment (net) ([1]; NFP 1 μM, 24 h pretreatment of mMOR-CHO cells): 156.20 ± 13.83 fmol/mg
- Relative efficacy versus naltrexone ([7]; mMOR-CHO membranes): ~3 fold
- EC50 ([7]; MOR-CHO membranes): 1.2 ± 0.19 nM

Compound: O=C(N[C@@H]1CCC2(O)C3Cc4ccc(O)c5c4[C@@]2(CCN3CC2CC2)[C@H]1O5)c1ccnc(Br)c1 (some centres unmarked) (as salt: hydrochloride)
- melting point: > 250 °C

Reference: patent publication US11014933B2 (priority 2018, dated 2021)
